The text below walks through data of US9643959B2, “Tubulin polymerization inhibitor and method for synthesizing same” (KOREA RESEARCH INSTITUTE OF BIOSCIENCE AND BIOTECHNOLOGY, priority 2013, dated 2017).

Structures are written as SMILES.

This assay deals with cell proliferation. The assay is described as follows: screening of the small-molecule library for materials that can inhibit cell proliferation. The format is cell-based. As to conditions: screen of small-molecule library; no data or method given.

As for `CCOC(=O)Cn1c(C)c(/C=N/NC(=O)c2cc3c(ccc4ccccc43)o2)c2ccccc21` [Compound 7, (E)-ethyl 2-(2-methyl-3-((2-(naphtho[2,1-b]furan-2-carbonyl)hydrazono)methyl)-1H-indol-1-yl)acetate], the “activity of inhibiting mitosis” value is “has an activity of inhibiting mitosis”.
